Data reported in patent US8877747B2, “Indenone derivative and pharmaceutical composition comprising same” (Korea Research Institute of Chemical Technology, priority 2009, dated 2014).
Structures can show the parent of a compound that is named as a salt.

What follows are compounds tested on MC3T3-E1 cells (assay: ALP activity, differentiation of osteoblast cells). Conditions: Mus musculus, MC3T3-E1, 144 h; MC3T3E1 cells treated with 10 μM compound and OF; relates activity to OF-only group (100%); higher = more efficacious.
Assay type: cell-based
Procedure: To examine the effects of the inventive indenone derivatives on the differentiation and activation of osteoblast cells, the activity and expression of alkaline phosphatase (ALP), a marker for the differentiation of osteoblast cells, and the bone nodule formation using a mouse derived osteoblast-like cells, MC3T3-E1 (ATCC, Japan) or a primary mouse calvaria derived preosteoblastic cells were observed.
MC3T3-E 1 cells were seeded in a medium containing osteogenic factors (OF) such as ascorbic acids and β-glycerophosphates (b-GP), and each compound of Examples was added thereto at a concentration of 0.1, 1 and 10 μM. The cells were incubated for 6 days (MC3T3-E1 cells) or 7 days (primary mouse calvaria derived preosteoblastic cells) in a 37° C. CO2 incubator. Then, the culture medium was replaced with a fresh medium together with the test compound every two or three days. On the last day, the medium was centrifuged to remove the supernatant, and the cells were washed with PBS. The washed cells were subjected to a 3-cycle freege-thaw treatment using a −70° C. deep freezer to allow enzymes elute in a lysis buffer. The lysed protein was quantified, followed by measurement of ALP activity using 4-nitrophenylphosphate.
Further, a group treated only with DMSO or OF was tested for ALP activities for comparison.

Going from `O=C1C(c2cccnc2)=C(c2cc(F)cc(F)c2)c2ccc(OCCN3CCOCC3)cc21` [Example 36, 6-(2-morpholinoethoxy)-3-(3,5-difluorophenyl)-2-(pyridin-3-yl)-1H-inden-1-one hydrochloride salt] to `O=C1C(c2cncnc2)=C(c2cc(F)cc(F)c2)c2ccc(OCCN3CCOCC3)cc21` [Example 39, 6-(2-morpholinoethoxy)-3-(3,5-difluorophenyl)-2-(pyrimidin-5-yl)-1H-inden-1-one], the activity at 10 µM falls from 224% to 92%.

Going from `O=C1C(c2ccc(C(F)(F)F)cc2)=C(c2cc(F)cc(F)c2)c2ccc(OCCN3CCOCC3)cc21` [Example 37, 6-(2-morpholinoethoxy)-2-(4-(trifluoromethyl)phenyl)-3-(3,5-difluorophenyl)-1H-inden-1-one] to `O=C1C(c2ccc(F)c(F)c2)=C(c2cc(F)cc(F)c2)c2ccc(OCCN3CCOCC3)cc21` [Example 38, 6-(2-morpholinoethoxy)-2-(3,4-difluorophenyl)-3-(3,5-difluorophenyl)-1H-inden-1-one], the activity at 10 µM falls from 80% to 77%.

Compared with `C[n+]1cccc(C2=C(c3ccccc3)c3ccc(OCC[N+]4(C)CCOCC4)cc3C2=O)c1` [Example 40, 4-methyl-4-(2-{[2-(1-methylpyridin-1-ium-3-yl)-1-oxo-3-phenyl-1H-inden-6-yl]oxy}ethyl)morpholin-4-ium diiodide], `O=C1C(c2ccc[n+]([O-])c2)=C(c2ccccc2)c2ccc(OCC[N+]3([O-])CCOCC3)cc21` [Example 43, 4-oxido-4-(2-{[2-(1-oxidopyridin-1-ium-3-yl)-1-oxo-3-phenyl-1H-inden-6-yl]oxy}ethyl)morpholin-4-ium] is lower in activity at 10 µM: 291% for the first, 125% for the second.

Compared with `C[n+]1cccc(C2=C(c3ccccc3)c3ccc(OCCN4CCOCC4)cc3C2=O)c1` [Example 41, 1-methyl-3-{6-[2-(morpholin-4-yl)ethoxy]-1-oxo-3-phenyl-1H-inden-2-yl}pyridin-1-ium iodide], `O=C1C(c2cccnc2)=C(c2ccccc2)c2ccc(OCCN3CCNCC3)cc21` [Example 46, 6-(2-(piperazin-1-yl)ethoxy)-3-phenyl-2-(pyridin-3-yl)-1H-inden-1-one] is lower in activity at 10 µM: 329% for the first, 107% for the second.

Compared with `CC(C)(C)OC(=O)N1CCN(CCOc2ccc3c(c2)C(=O)C(c2cccnc2)=C3c2ccccc2)CC1` [Example 44, tert-butyl 4-(2-(1-oxo-3-phenyl-2-(pyridin-3-yl)-1H-inden-6-yloxy)ethyl)piperazine-1-carboxylate], `CC(C)(C)OC(=O)N1CCN(CCCOc2ccc3c(c2)C(=O)C(c2cccnc2)=C3c2ccccc2)CC1` [Example 55, tert-Butyl 4-(3-(1-oxo-3-phenyl-2-(pyridin-3-yl)-1H-inden-6-yloxy)propyl)piperazine-1-carboxylate] is lower in activity at 10 µM: 710% for the first, 129% for the second.

First: CS(=O)(=O)N1CCN(CCOc2ccc3c(c2)C(=O)C(c2cccnc2)=C3c2ccccc2)CC1 [Example 45, 6-[2-(4-(methylsulfonyl)piperazin-1-yl)ethoxy]-3-phenyl-2-(pyridin-3-yl)-1H-inden-1-one hydrochloride salt]
Second: CS(=O)(=O)N1CCN(CCOc2ccc3c(c2)C(=O)C(c2cccnc2)=C3c2cc(F)cc(F)c2)CC1 [Example 59, 3-(3,5-difluorophenyl)-6-(2-(4-(methylsulfonyl)piperazin-1-yl)ethoxy)-2-(pyridin-3-yl)-1H-inden-1-one hydrochloride salt]
The activity at 10 µM of the first is lower: 192% for the first, 254% for the second.

First: CS(=O)(=O)N1CCN(CCOc2ccc3c(c2)C(=O)C(c2ccc(F)c(F)c2)=C3c2ccc(C(F)(F)F)cc2)CC1 [Example 48, 2-(3,4-difluorophenyl)-6-(2-(4-(methylsulfonyl)piperazin-1-yl)ethoxy)-3-(4-(trifluoromethyl)phenyl)-1H-inden-1-one]
Second: CS(=O)(=O)N1CCN(CCOc2ccc3c(c2)C(=O)C(c2ccc(F)c(F)c2)=C3c2ccc(Cl)cc2)CC1 [Example 53, 3-(4-chlorophenyl)-2-(3,4-difluorophenyl)-6-(2-(4-(methylsulfonyl)piperazin-1-yl)ethoxy)-1H-inden-1-one hydrochloride salt]
The activity at 10 µM of the first is higher: 67% for the first, 27% for the second.

First: CS(=O)(=O)N1CCN(CCOc2ccc3c(c2)C(=O)C(c2cncnc2)=C3c2ccc(C(F)(F)F)cc2)CC1 [Example 49, 6-(2-(4-(methylsulfonyl)piperazin-1-yl)ethoxy)-2-(pyrimidin-5-yl)-3-(4-(trifluoromethyl)phenyl)-1H-inden-1-one]
Second: CS(=O)(=O)N1CCN(CCOc2ccc3c(c2)C(=O)C(c2cncnc2)=C3c2ccc(Cl)cc2)CC1 [Example 54, 3-(4-chlorophenyl)-6-(2-(4-(methylsulfonyl)piperazin-1-yl)ethoxy)-2-(pyrimidin-5-yl)-1H-inden-1-one hydrochloride salt]
The activity at 10 µM of the first is lower: 37% for the first, 62% for the second.

Compared with `CS(=O)(=O)N1CCN(CCOc2ccc3c(c2)C(=O)C(c2ccc(F)c(F)c2)=C3c2cc(F)cc(F)c2)CC1` [Example 51, 2-(3,4-difluorophenyl)-3-(3,5-difluorophenyl)-6-(2-(4-(methylsulfonyl)piperazin-1-yl)ethoxy)-1H-inden-1-one hydrochloride salt], `CS(=O)(=O)N1CCN(CCOc2ccc3c(c2)C(=O)C(c2cncnc2)=C3c2cc(F)cc(F)c2)CC1` [Example 52, 3-(3,5-difluorophenyl)-6-(2-(4-(methylsulfonyl)piperazin-1-yl)ethoxy)-2-(pyrimidin-5-yl)-1H-inden-1-one hydrochloride salt] is higher in activity at 10 µM: 33% for the first, 50% for the second.

First: CN(C)CCOc1ccc2c(c1)C(=O)C(c1cccnc1)=C2c1ccccc1 [Example 56, 6-(2-(dimethylamino)ethoxy)-3-phenyl-2-(pyridin-3-yl)-1H-inden-1-one hydrochloride salt]
Second: CN(C)CCCOc1ccc2c(c1)C(=O)C(c1cccnc1)=C2c1ccccc1 [Example 57, 6-(3-(dimethylamino)propoxy)-3-phenyl-2-(pyridin-3-yl)-1H-inden-1-one hydrochloride salt]
The activity at 10 µM of the first is higher: 71% for the first, 62% for the second.

First: CC(C)(C)OC(=O)N1CCN(CCOc2ccc3c(c2)C(=O)C(c2cccnc2)=C3c2cc(F)cc(F)c2)CC1 [Example 58, tert-Butyl 4-(2-(3-(3,5-difluorophenyl)-1-oxo-2-(pyridin-3-yl)-1H-inden-6-yloxy)ethyl)piperazine-1-carboxylate]
Second: O=C1C(c2cccnc2)=C(c2cc(F)cc(F)c2)c2ccc(OCCN3CCCCC3)cc21 [Example 63, 3-(3,5-difluorophenyl)-6-(2-(piperidin-1-yl)ethoxy)-2-(pyridin-3-yl)-1H-inden-1-one hydrochloride salt]
The activity at 10 µM of the first is lower: 19% for the first, 53% for the second.

First: CN(C)CCCOc1ccc2c(c1)C(=O)C(c1cccnc1)=C2c1cc(F)cc(F)c1 [Example 60, 3-(3,5-difluorophenyl)-6-(3-(dimethylamino)propoxy)-2-(pyridin-3-yl)-1H-inden-1-one hydrochloride salt]
Second: O=C1C(c2cccnc2)=C(c2cc(F)cc(F)c2)c2ccc(OCCc3ccccc3)cc21 [Example 61, 3-(3,5-difluorophenyl)-6-phenethoxy-2-(pyridin-3-yl)-1H-inden-1-one hydrochloride salt]
The activity at 10 µM of the first is lower: 19% for the first, 113% for the second.

In the case of `O=C1C(c2cccnc2)=C(c2cc(F)cc(F)c2)c2ccc(OCCc3ccccn3)cc21` [Example 62, 3-(3,5-difluorophenyl)-6-(2-(pyridin-2-yl)ethoxy)-2-(pyridin-3-yl)-1H-inden-1-one hydrochloride salt], the activity at 10 µM is reported as 90%.
